From ChEMBL document CHEMBL1135385, “New highly active taxoids from 9beta-dihydrobaccatin-9,10-acetals. Part 2” (Bioorg Med Chem Lett, 2002)
In brackets after ≈: the same amount, converted by molar mass.

Columns and labels:
PC-6 [1] = test: Concentration required to obtain half of the maximal inhibition for cell growth in human small cell lung cancer(PC-6) was determined by using MTT assay when the cells were exposed to compound for 72 hr; type: functional; conditions: PC-6, Lung
PC-6 [2] = test: Concentration required to obtain half of the maximal inhibition for cell growth in vincristine-resistant cell line expressing P-glycoprotein (PC-6/VCR29-9) was determined by using MTT assay when the cells were exposed to compound for 72 hr; type: functional; conditions: Homo sapiens, PC-6, 72 h
PC-12 = test: Concentration required to obtain half of the maximal inhibition for cell growth in human non-small cell lung cancer cell line(PC-12) was determined by using MTT assay when the cells were exposed to compound for 72 hr; conditions: PC-12, Lung
[3] = Solubility (JP1 at pH 1.2); type: physicochemical; conditions: JP1, pH 1.2
[4] = Solubility (JP2 at pH 6.8); type: physicochemical; conditions: JP2, pH 6.8

Row | GI50 (PC-12) [ng/mL] | solubility [3] [mg/mL] | solubility [4] [mg/mL] | Structure (SMILES) | GI50 (PC-6 [1]) [ng/mL] | GI50 (PC-6 [2]) [ng/mL]
1 | 0.038 (≈ 0.0455 nM) |  |  | CC(=O)O[C@@]12CO[C@@H]1CC[C@@]1(C)[C@@H]3OC(C)(C)O[C@@H]3C3=C(C)[C@@H](OC(=O)[C@H](O)[C@@H](NC(=O)OC(C)(C)C)c4ccncc4)C[C@@](O)([C@@H](OC(=O)c4ccccc4)[C@@H]12)C3(C)C | 0.386 (≈ 0.462 nM) | 3.84 (≈ 4.6 nM)
2 | 0.665 (≈ 0.781 nM) | 0.333 (≈ 391000 nM) | 0.057 (≈ 67000 nM) | CC(=O)O[C@@]12CO[C@@H]1C[C@H](O)[C@@]1(C)[C@@H]3OC(C)(C)O[C@@H]3C3=C(C)[C@@H](OC(=O)[C@H](O)[C@@H](NC(=O)OC(C)(C)C)c4ccncc4)C[C@@](O)([C@@H](OC(=O)c4ccccc4)[C@H]21)C3(C)C | 0.38 (≈ 0.447 nM) | 13.5 (≈ 15.9 nM)
3 | 0.116 (≈ 0.139 nM) |  |  | CC(=O)O[C@@]12CO[C@@H]1CC[C@@]1(C)[C@@H]3OC(C)(C)O[C@@H]3C3=C(C)[C@@H](OC(=O)[C@H](O)[C@@H](NC(=O)OC(C)(C)C)c4ccccn4)C[C@@](O)([C@@H](OC(=O)c4ccccc4)[C@@H]12)C3(C)C | 0.145 (≈ 0.174 nM) | 0.538 (≈ 0.644 nM)
4 | 2.26 (≈ 2.61 nM) |  |  | CO[C@H]1C[C@H]2OC[C@@]2(OC(C)=O)[C@H]2[C@H](OC(=O)c3ccccc3)[C@]3(O)C[C@H](OC(=O)[C@H](O)[C@@H](NC(=O)OC(C)(C)C)c4ccncc4)C(C)=C([C@H]4OC(C)(C)O[C@H]4[C@]12C)C3(C)C | 0.229 (≈ 0.265 nM) | 38.1 (≈ 44 nM)
5 | 33.7 (≈ 40.5 nM) |  |  | CC(=O)O[C@@]12CO[C@@H]1C[C@@H]1C[C@@]13[C@@H]1OC(C)(C)O[C@@H]1C1=C(C)[C@@H](OC(=O)[C@H](O)[C@@H](NC(=O)OC(C)(C)C)c4ccncc4)C[C@@](O)([C@@H](OC(=O)c4ccccc4)[C@H]23)C1(C)C | 7.03 (≈ 8.44 nM) | > 100
6 | 0.151 (≈ 0.181 nM) |  |  | CC(=O)O[C@@]12CO[C@@H]1CC[C@@]1(C)[C@@H]3OC(C)(C)O[C@@H]3C3=C(C)[C@@H](OC(=O)[C@H](O)[C@@H](NC(=O)OC(C)(C)C)c4ccccc4)C[C@@](O)([C@@H](OC(=O)c4ccccc4)[C@@H]12)C3(C)C | 0.332 (≈ 0.398 nM) | 2.91 (≈ 3.49 nM)
7 | 0.13 (≈ 0.152 nM) |  |  | CC(=O)O[C@@]12CO[C@@H]1C[C@@H](F)[C@@]1(C)[C@@H]3OC(C)(C)O[C@@H]3C3=C(C)[C@@H](OC(=O)[C@H](O)[C@@H](NC(=O)OC(C)(C)C)c4ccncc4)C[C@@](O)([C@@H](OC(=O)c4ccccc4)[C@H]21)C3(C)C | 0.266 (≈ 0.312 nM) | 3.87 (≈ 4.54 nM)
8 | 42.2 | < 0.004 | < 0.004 | CC(=O)O[C@@]12CO[C@@H]1C[C@H](O)[C@@]1(C)C(=O)[C@H](O)C3=C(C)[C@@H](OC(=O)[C@H](O)[C@@H](NC(=O)OC(C)(C)C)c4ccccc4)C[C@@](O)([C@@H](OC(=O)c4ccccc4)[C@H]21)C3(C)C.O.O.O [DOCETAXEL] | 1.48 | 135
9 |  | < 0.004 | < 0.004 | CC(=O)O[C@H]1C(=O)[C@@]2(C)[C@H]([C@H](OC(=O)c3ccccc3)[C@]3(O)C[C@H](OC(=O)[C@H](O)[C@@H](NC(=O)c4ccccc4)c4ccccc4)C(C)=C1C3(C)C)[C@]1(OC(C)=O)CO[C@@H]1C[C@@H]2O [PACLITAXEL] |  | 
